Data reported in patent US8952024B2, “Herbicidal pyrimidone derivatives” (E I du Pont de Nemours and Company, priority 2009, dated 2015).

Legend:
Format in all cases: in vivo
corn (Zea mays) = assay: Test B pre-/postemergence plant response
Excerpt: (§1) Seeds of plant species selected from blackgrass (Alopecurus myosuroides), downy bromegrass (Bromus tectorum), green foxtail (Setaria viridis), Italian ryegrass (Lolium multiflorum), wheat (Triticum aestivum), wild oat (Avena fatua), deadnettle (henbit deadnettle, Lamium amplexicaule), galium (catchweed bedstraw, Galium aparine), bermudagrass (Cynodon dactylon), Surinam grass (Brachiaria decumbens), cocklebur (Xanthium strumarium), corn (Zea mays), large crabgrass (Digitaria sanguinalis), woolly cupgrass (Eriochloa villosa), giant foxtail (Setaria faberii), goosegrass (Eleusine indica), johnsongrass (Sorghum halepense), kochia (Kochia scoparia), lambsquarters (Chenopodium album), morningglory (Ipomoea coccinea), nightshade (eastern black nightshade, Solanum ptycanthum), yellow nutsedge (Cyperus esculentus), pigweed (Amaranthus retroflexus), ragweed (common ragweed, Ambrosia elatior), Russian thistle (Salsola kali), soybean (Glycine max), sunflower (common oilseed sunflower, Helianthus annuus) and velvetleaf (Abutilon theophrasti) were planted into a blend of loam soil and sand and treated preemergence with test compounds formulated in a non-phytotoxic solvent mixture which included a surfactant.
(§2) At the same time, plants selected from these crop and weed species and also winter barley (Hordeum vulgare), canarygrass (Phalaris minor), chickweed (Stellaria media) and windgrass (Apera spica-venti) were planted in pots containing Redi-Earth® planting medium (Scotts Company, 14111 Scottslawn Road, Marysville, Ohio 43041) comprising spaghnum peat moss, vermiculite, wetting agent and starter nutrients and treated with postemergence applications of some of the test chemicals formulated in the same manner. Plants ranged in height from 2 to 18 cm (1- to 4-leaf stage) for postemergence treatments.
(§3) Treated plants and controls were maintained in a greenhouse for 13 to 15 days, after which time all treated plants were visually evaluated and compared to controls. Plant response ratings, summarized in Table B, are based on a scale of 0 to 100 where 0 is no effect and 100 is complete control. A dash (-) response means no test result.

[1] = system: blackgrass (Alopecurus myosuroides); assay: Test B pre-/postemergence plant response
Excerpt: as §1, §2, §3

[2] = system: giant foxtail (Setaria faberii); assay: Test B pre-/postemergence plant response
Excerpt: as §1, §2, §3

wild oat (Avena fatua) = assay: Test B pre-/postemergence plant response
Excerpt: as §1, §2, §3

[3] = system: bermudagrass (Cynodon dactylon); assay: Test B pre-/postemergence plant response
Excerpt: as §1, §2, §3

[4] = system: johnsongrass (Sorghum halepense); assay: Test B pre-/postemergence plant response
Excerpt: as §1, §2, §3

soybean (Glycine max) = assay: Test B pre-/postemergence plant response
Excerpt: as §1, §2, §3

kochia (Kochia scoparia) = assay: Test B pre-/postemergence plant response; settings: Postemergence; for Plant response rating, Kochia: scale 0 (no effect) to 100 (complete control); for Kochia plant response rating: 250 g ai/ha, scale 0 to 100
Excerpt: as §1, §2, §3

[5] = system: morningglory (Ipomoea coccinea); assay: Test B pre-/postemergence plant response
Excerpt: as §1, §2, §3

[6] = system: cocklebur (Xanthium strumarium); assay: Test B pre-/postemergence plant response; settings: Preemergence
Excerpt: as §1, §2, §3

[7] = system: winter barley (Hordeum vulgare); assay: Test B postemergence plant response; settings: Postemergence
Method in brief: (§4)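 Plants grown in peat/vermiculite medium were sprayed postemergence at 2–18 cm height (1- to 4-leaf stage). After 13–15 days in the greenhouse, response was rated visually against untreated controls on a 0–100 scale (0 no effect, 100 complete control).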

[8] = system: canarygrass (Phalaris minor); assay: Test B postemergence plant response; settings: Postemergence; for Canarygrass plant response rating: 250 g ai/ha, scale 0 to 100
Method in brief: as §4

[9] = system: chickweed (Stellaria media); assay: Test B postemergence plant response; settings: Postemergence; for Chickweed plant response rating: 250 g ai/ha, scale 0 to 100
Method in brief: as §4

[10] = system: windgrass (Apera spica-venti); assay: Test B postemergence plant response; settings: Postemergence, scale 0 (no effect) to 100 (complete control)
Method in brief: as §4

[11] = 250 g ai/ha, Preemergence, 0 to 100 scale
[12] = Postemergence, 31 g ai/ha, scale 0 to 100 (0 no effect, 100 complete control)
[13] = Postemergence, 62 g ai/ha, scale 0 (no effect) to 100 (complete control), 13 to 15 days
[14] = Postemergence, 125 g ai/ha, visual rating after 13 to 15 days, scale 0 (no effect) to 100 (complete control)
[15] = Postemergence, 250 g ai/ha, scale 0 to 100
[16] = Preemergence, 31 g ai/ha, scale 0 to 100 (0 no effect, 100 complete control)
[17] = Preemergence, 62 g ai/ha, scale 0 to 100 (0 no effect, 100 complete control)
[18] = Preemergence, 125 g ai/ha, 0 to 100 scale
[19] = 125 g ai/ha, visual rating after 13 to 15 days
[20] = 31 g ai/ha, scale 0 to 100 (0 no effect, 100 complete control)
[21] = 62 g ai/ha, scale 0 (no effect) to 100 (complete control), 13 to 15 days
[22] = 125 g ai/ha, visual rating after 13 to 15 days, scale 0 (no effect) to 100 (complete control)

Cc1ccccc1-n1c(-c2cccc(Cl)c2)ncc(C(=O)C2=C(O)CCCC2=O)c1=O [Compound 36]
90: Plant response rating, Bermudagrass [3, 12]
70: Plant response rating, Morningglory [5, 13] | Plant response rating, Windgrass ([10]; 62 g ai/ha, 13 to 15 days)
15: Plant response rating, Blackgrass [1, 14] | Blackgrass plant response rating [1, 15]
80: Plant response rating, Foxtail, Giant [2, 11] | Johnsongrass plant response rating [4, 18] | Plant response rating, Cocklebur ([6]; 250 g ai/ha, 0 to 100 scale) | Plant response rating, Windgrass [10, 19]
20: Plant response rating, Blackgrass [1, 16] | Plant response rating, Foxtail, Giant [2, 17] | Plant response rating, Morningglory [5, 11] | Plant response rating, Barley [7, 22]
98: Plant response rating, Foxtail, Giant [2, 14] | Foxtail, Giant plant response rating [2, 15] | Plant response rating, Bermudagrass [3, 13] | Plant response rating, Soybean (soybean (Glycine max); [13]) | Plant response rating, Chickweed [9, 21]
60: Plant response rating, Kochia (kochia (Kochia scoparia); [19])
5: Plant response rating, Blackgrass [1, 12] | Plant response rating, Blackgrass [1, 13] | Plant response rating, Barley [7, 20]
45: Plant response rating, Canarygrass [8, 21]
65: Plant response rating, Corn (corn (Zea mays); [14]) | Foxtail, Giant plant response rating [2, 18] | Plant response rating, Johnsongrass [4, 17] | Kochia plant response rating (kochia (Kochia scoparia))
40: Plant response rating, Soybean (soybean (Glycine max); [11]) | Plant response rating, Canarygrass [8, 20]
85: Corn plant response rating (corn (Zea mays); [15]) | Plant response rating, Johnsongrass [4, 11] | Plant response rating, Johnsongrass [4, 14] | Plant response rating, Chickweed [9, 20]
25: Plant response rating, Blackgrass [1, 11] | Plant response rating, Blackgrass [1, 17] | Blackgrass plant response rating [1, 18]
10: Plant response rating, Foxtail, Giant [2, 16] | Plant response rating, Barley [7, 21]
55: Plant response rating, Corn (corn (Zea mays); [13])
100: Plant response rating, Bermudagrass [3, 11] | Plant response rating, Bermudagrass [3, 14] | Bermudagrass plant response rating [3, 15] | Plant response rating, Bermudagrass [3, 17] | Bermudagrass plant response rating [3, 18] | Johnsongrass plant response rating [4, 15] | Plant response rating, Soybean (soybean (Glycine max); [14]) | Plant response rating, Chickweed [9, 22] | Chickweed plant response rating [9]
75: Plant response rating, Oat, Wild (wild oat (Avena fatua); [13]) | Plant response rating, Oat, Wild (wild oat (Avena fatua); [14]) | Plant response rating, Johnsongrass [4, 13] | Plant response rating, Morningglory [5, 14]
0: Plant response rating, Corn (corn (Zea mays); [11]) | Plant response rating, Corn (corn (Zea mays); [16]) | Plant response rating, Corn (corn (Zea mays); [17]) | Corn plant response rating (corn (Zea mays); [18]) | Plant response rating, Oat, Wild (wild oat (Avena fatua); [11]) | Plant response rating, Oat, Wild (wild oat (Avena fatua); [16]) | Oat, Wild plant response rating (wild oat (Avena fatua); [18]) | Plant response rating, Johnsongrass [4, 16] | Plant response rating, Soybean (soybean (Glycine max); [16]) | Soybean plant response rating (soybean (Glycine max); [18]) | Plant response rating, Kochia (kochia (Kochia scoparia); 62 g ai/ha, 13 to 15 days) | Plant response rating, Morningglory [5, 16] | Plant response rating, Morningglory [5, 17] | Morningglory plant response rating [5, 18]
95: Plant response rating, Foxtail, Giant [2, 12] | Plant response rating, Foxtail, Giant [2, 13] | Plant response rating, Bermudagrass [3, 16]
50: Plant response rating, Corn (corn (Zea mays); [12]) | Plant response rating, Canarygrass [8, 22] | Canarygrass plant response rating [8]

O=C1CCCC(O)=C1C(=O)c1cnc(-c2ccccc2)n(-c2cccc(Br)c2)c1=O [Compound 38]
30: Blackgrass plant response rating [1, 18]
0: Plant response rating, Corn (corn (Zea mays); [11]) | Plant response rating, Corn (corn (Zea mays); [16]) | Plant response rating, Corn (corn (Zea mays); [17]) | Corn plant response rating (corn (Zea mays); [18]) | Plant response rating, Blackgrass [1, 16] | Plant response rating, Foxtail, Giant [2, 16] | Plant response rating, Oat, Wild (wild oat (Avena fatua); [16]) | Oat, Wild plant response rating (wild oat (Avena fatua); [18]) | Plant response rating, Soybean (soybean (Glycine max); [16]) | Soybean plant response rating (soybean (Glycine max); [18]) | Plant response rating, Morningglory [5, 16] | Plant response rating, Morningglory [5, 17] | Morningglory plant response rating [5, 18] | Plant response rating, Cocklebur [6, 20] | Plant response rating, Barley [7, 20] | Plant response rating, Barley [7, 21] | Plant response rating, Barley [7, 22]
90: Corn plant response rating (corn (Zea mays); [15]) | Plant response rating, Soybean (soybean (Glycine max); [14]) | Plant response rating, Cocklebur ([6]; 250 g ai/ha, 0 to 100 scale) | Plant response rating, Chickweed [9, 21]
45: Canarygrass plant response rating [8]
35: Barley plant response rating ([7]; 250 g ai/ha, scale 0 to 100)
70: Plant response rating, Corn (corn (Zea mays); [13]) | Plant response rating, Morningglory [5, 13]
5: Plant response rating, Blackgrass [1, 12] | Plant response rating, Blackgrass [1, 17]
98: Plant response rating, Foxtail, Giant [2, 13] | Plant response rating, Bermudagrass [3, 12] | Plant response rating, Bermudagrass [3, 16]
25: Cocklebur plant response rating ([6]; 125 g ai/ha, 0 to 100 scale)
80: Foxtail, Giant plant response rating [2, 18] | Plant response rating, Oat, Wild (wild oat (Avena fatua); [14]) | Plant response rating, Johnsongrass [4, 17] | Plant response rating, Kochia (kochia (Kochia scoparia); 62 g ai/ha, 13 to 15 days) | Plant response rating, Windgrass ([10]; 62 g ai/ha, 13 to 15 days)
15: Plant response rating, Blackgrass [1, 13] | Plant response rating, Blackgrass [1, 14]
100: Plant response rating, Foxtail, Giant [2, 14] | Foxtail, Giant plant response rating [2, 15] | Plant response rating, Bermudagrass [3, 11] | Plant response rating, Bermudagrass [3, 13] | Plant response rating, Bermudagrass [3, 14] | Bermudagrass plant response rating [3, 15] | Plant response rating, Bermudagrass [3, 17] | Bermudagrass plant response rating [3, 18] | Johnsongrass plant response rating [4, 15] | Plant response rating, Kochia (kochia (Kochia scoparia); [19]) | Kochia plant response rating (kochia (Kochia scoparia)) | Plant response rating, Morningglory [5, 11] | Plant response rating, Chickweed [9, 22] | Chickweed plant response rating [9]
85: Johnsongrass plant response rating [4, 18] | Plant response rating, Soybean (soybean (Glycine max); [13]) | Plant response rating, Chickweed [9, 20] | Plant response rating, Windgrass [10, 19]
10: Plant response rating, Johnsongrass [4, 16] | Plant response rating, Cocklebur ([6]; 62 g ai/ha, scale 0 to 100 (0 no effect, 100 complete control)) | Plant response rating, Canarygrass [8, 20] | Plant response rating, Canarygrass [8, 21] | Plant response rating, Canarygrass [8, 22]
95: Plant response rating, Foxtail, Giant [2, 11] | Plant response rating, Foxtail, Giant [2, 12] | Plant response rating, Johnsongrass [4, 11] | Plant response rating, Johnsongrass [4, 14]
40: Plant response rating, Blackgrass [1, 11] | Blackgrass plant response rating [1, 15] | Plant response rating, Foxtail, Giant [2, 17]
55: Plant response rating, Corn (corn (Zea mays); [12])
75: Plant response rating, Corn (corn (Zea mays); [14]) | Plant response rating, Oat, Wild (wild oat (Avena fatua); [13]) | Plant response rating, Johnsongrass [4, 13] | Plant response rating, Soybean (soybean (Glycine max); [11]) | Plant response rating, Morningglory [5, 14]
20: Plant response rating, Oat, Wild (wild oat (Avena fatua); [11])
